ChEMBL document CHEMBL1201862, “PubChem BioAssay data set” (2004)
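Cells were grown in 96-well plates and exposed to each compound for 48 hours at five concentrations; endpoints were interpolated linearly between bracketing concentrations, or set to the highest concentration if not reached. The concentration for 50% growth inhibition is given as GI50.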 The source made the active and inactive calls. No stated cut-off is given here; in the data, active = GI50 up to about 1.1 µM and inactive = higher.

Tests used:
Experiment in all cases: NCI anticancer screen, dose series, 48 h
[1] = system: EKVX
[2] = system: UO-31
[3] = system: LXFL 529
[4] = system: SF-539
[5] = system: RXF 393
[6] = system: HL-60
[7] = system: HCC 2998
[8] = system: U-251
[9] = system: OVCAR-5
[10] = system: ACHN
[11] = system: SN12C
[12] = system: SW-620
[13] = system: HCT-116
[14] = system: HCT-15
[15] = system: MOLT-4
[16] = system: MCF7
[17] = system: MDA-MB-231
[18] = system: MDA-N
[19] = system: MDA-MB-435
[20] = system: SR

Structure (SMILES)	GI50 [1]	GI50 [2]	GI50 [3]	GI50 [4]	GI50 [5]	GI50 [6]	GI50 [7]	GI50 [8]	GI50 [9]	GI50 [10]	GI50 [11]	GI50 [12]	GI50 [13]	GI50 [14] [µM]	GI50 [15]	GI50 [16]	GI50 [17]	GI50 [18]	GI50 [19]	GI50 [20]
Cc1cc(C)[n+]2c(c1)C=CC2.[O-][Cl+3]([O-])([O-])[O-]	21.6 µM (inactive)	39.4 µM (inactive)	16.5 µM (inactive)	22.8 µM (inactive)	2.89 µM (inactive)	2.94 µM (inactive)	> 100 µM (inactive)	29.7 µM (inactive)	> 100 µM (inactive)	17.7 µM (inactive)	31.2 µM (inactive)	4.18 µM (inactive)	–	–	–	–	–	–	–	–
O=C(NN1C(=O)C(Cl)C1c1ccc(O)cc1)c1ccccc1O (stereo not drawn)	–	15.6 µM (inactive)	17.9 µM (inactive)	23.4 µM (inactive)	13.1 µM (inactive)	25.2 µM (inactive)	–	14.3 µM (inactive)	–	19.1 µM (inactive)	23 µM (inactive)	–	13.7 µM (inactive)	14.6	27.6 µM (inactive)	–	–	–	–	–
O=c1c2ccccc2oc2nccnc12	> 100 µM (inactive)	> 100 µM (inactive)	> 100 µM (inactive)	> 100 µM (inactive)	> 100 µM (inactive)	–	> 100 µM (inactive)	> 100 µM (inactive)	> 100 µM (inactive)	> 100 µM (inactive)	> 100 µM (inactive)	> 100 µM (inactive)	> 100 µM (inactive)	> 100	> 100 µM (inactive)	–	–	–	–	–
N=c1oc2ccccc2cc1C(=O)NC12CC3CC(CC(C3)C1)C2	21.9 µM (inactive)	0.0887 µM (active)	–	16.9 µM (inactive)	6.52 µM (inactive)	9.16 µM (inactive)	14.5 µM (inactive)	17.1 µM (inactive)	37.5 µM (inactive)	6.89 µM (inactive)	28.2 µM (inactive)	19.3 µM (inactive)	15.6 µM (inactive)	12.5	2.41 µM (inactive)	3.7 µM (inactive)	20.1 µM (inactive)	26.2 µM (inactive)	18.6 µM (inactive)	2.9 µM (inactive)
COc1ccc2cc1Oc1ccc(cc1)C(Sc1ccccc1)CCOC(=O)CC2 (stereo not drawn)	> 100 µM (inactive)	> 100 µM (inactive)	–	> 100 µM (inactive)	> 100 µM (inactive)	28.1 µM (inactive)	> 100 µM (inactive)	> 100 µM (inactive)	> 100 µM (inactive)	> 100 µM (inactive)	> 100 µM (inactive)	> 100 µM (inactive)	> 100 µM (inactive)	18.1	> 100 µM (inactive)	> 100 µM (inactive)	54 µM (inactive)	> 100 µM (inactive)	> 100 µM (inactive)	> 100 µM (inactive)
CN(C)CCCC12CCCCC1=Nc1ccccc12 (stereo not drawn)	> 100 µM (inactive)	> 100 µM (inactive)	–	> 100 µM (inactive)	> 100 µM (inactive)	26.1 µM (inactive)	> 100 µM (inactive)	> 100 µM (inactive)	> 100 µM (inactive)	> 100 µM (inactive)	> 100 µM (inactive)	> 100 µM (inactive)	> 100 µM (inactive)	> 100	> 100 µM (inactive)	> 100 µM (inactive)	> 100 µM (inactive)	> 100 µM (inactive)	94.6 µM (inactive)	22.5 µM (inactive)
O=C1C(F)=CC(COC(c2ccccc2)(c2ccccc2)c2ccccc2)OC1n1cc(F)c(=O)[nH]c1=O (stereo not drawn)	7.89 µM (inactive)	2.2 µM (inactive)	–	1.94 µM (inactive)	1.96 µM (inactive)	0.592 µM (active)	3.54 µM (inactive)	1.36 µM (inactive)	2.14 µM (inactive)	1.64 µM (inactive)	1.75 µM (inactive)	0.723 µM (active)	2.77 µM (inactive)	1.67	0.8 µM (active)	2.07 µM (inactive)	3.26 µM (inactive)	1.11 µM (active)	0.746 µM (active)	6.18 µM (inactive)
c1ccc(P2c3ccccc3Nc3ccccc32)cc1	34 µM (inactive)	> 100 µM (inactive)	–	59.8 µM (inactive)	29.5 µM (inactive)	29.1 µM (inactive)	> 100 µM (inactive)	56.1 µM (inactive)	> 100 µM (inactive)	86.5 µM (inactive)	41.1 µM (inactive)	> 100 µM (inactive)	38.6 µM (inactive)	> 100	24.8 µM (inactive)	72.1 µM (inactive)	35.3 µM (inactive)	91 µM (inactive)	> 100 µM (inactive)	23.2 µM (inactive)
COC(=O)C1C(O)C(C)C(O)C(C)C=C(C)C2=C3C(=C(C)C(=O)c4c(O)c(c(C)c(OC(C)=O)c43)NC(=O)C(C)=C/C=C\C(C)C(O)C(C)C1O)OCO2 (stereo not drawn)	34.3 µM (inactive)	25.9 µM (inactive)	–	37.8 µM (inactive)	24.9 µM (inactive)	17.8 µM (inactive)	34.3 µM (inactive)	45.4 µM (inactive)	> 100 µM (inactive)	27 µM (inactive)	37.4 µM (inactive)	23.9 µM (inactive)	31.8 µM (inactive)	22.4	15.6 µM (inactive)	25.3 µM (inactive)	23.8 µM (inactive)	16.9 µM (inactive)	15.7 µM (inactive)	19.7 µM (inactive)
CC(=O)NCc1c(C(N)=O)ncn1Cc1ccccc1	> 100 µM (inactive)	–	> 100 µM (inactive)	> 100 µM (inactive)	> 100 µM (inactive)	> 100 µM (inactive)	> 100 µM (inactive)	> 100 µM (inactive)	–	> 100 µM (inactive)	> 100 µM (inactive)	> 100 µM (inactive)	> 100 µM (inactive)	> 100	> 100 µM (inactive)	–	–	–	–	–
SC1=Nc2ccccc2-c2nc(-c3cccc(Cl)c3)cc(-c3ccccc3)c2C1	3.54 µM (inactive)	1.93 µM (inactive)	–	1.69 µM (inactive)	2.81 µM (inactive)	15 µM (inactive)	3.24 µM (inactive)	1.19 µM (inactive)	5.77 µM (inactive)	0.811 µM (active)	2.08 µM (inactive)	2.98 µM (inactive)	1.64 µM (inactive)	7.08	19.6 µM (inactive)	5.04 µM (inactive)	1.64 µM (inactive)	3.48 µM (inactive)	9.02 µM (inactive)	11.2 µM (inactive)
[Se]=P(c1ccccc1)(c1ccccc1)c1ccc(C(c2ccccc2)=P(c2ccccc2)(c2ccccc2)c2ccccc2)cc1	1.89 µM (inactive)	3.27 µM (inactive)	–	1.46 µM (inactive)	1.57 µM (inactive)	0.0881 µM (active)	0.979 µM (active)	0.385 µM (active)	3.05 µM (inactive)	2.44 µM (inactive)	1.23 µM (inactive)	1.19 µM (inactive)	0.6 µM (active)	4.55	1.32 µM (inactive)	0.695 µM (active)	0.661 µM (active)	0.753 µM (active)	0.671 µM (active)	0.415 µM (active)
N#Cc1c(Cl)cc(C#N)n2c1nc1ccccc12	20.7 µM (inactive)	7.85 µM (inactive)	–	7.24 µM (inactive)	14.2 µM (inactive)	1.18 µM (inactive)	21.2 µM (inactive)	20.8 µM (inactive)	16.4 µM (inactive)	15.2 µM (inactive)	19.4 µM (inactive)	3.47 µM (inactive)	4.11 µM (inactive)	6.07	2.3 µM (inactive)	9.2 µM (inactive)	8.87 µM (inactive)	10.6 µM (inactive)	11.7 µM (inactive)	0.532 µM (active)
CC(=O)NC(CCC(=O)C=[N+]=[N-])C(=O)O (stereo not drawn)	> 100 µM (inactive)	> 100 µM (inactive)	–	> 100 µM (inactive)	> 100 µM (inactive)	> 100 µM (inactive)	> 100 µM (inactive)	> 100 µM (inactive)	> 100 µM (inactive)	> 100 µM (inactive)	> 100 µM (inactive)	> 100 µM (inactive)	> 100 µM (inactive)	> 100	> 100 µM (inactive)	> 100 µM (inactive)	> 100 µM (inactive)	> 100 µM (inactive)	> 100 µM (inactive)	> 100 µM (inactive)
O=C(O)c1nn[nH]c1S	> 100 µM (inactive)	> 100 µM (inactive)	–	30.6 µM (inactive)	> 100 µM (inactive)	> 100 µM (inactive)	> 100 µM (inactive)	> 100 µM (inactive)	> 100 µM (inactive)	> 100 µM (inactive)	> 100 µM (inactive)	> 100 µM (inactive)	> 100 µM (inactive)	> 100	> 100 µM (inactive)	> 100 µM (inactive)	> 100 µM (inactive)	> 100 µM (inactive)	> 100 µM (inactive)	> 100 µM (inactive)
COc1ccc(C(=O)c2sc(Nc3ccc(Cl)cc3)nc2N)cc1	32.8 µM (inactive)	38.2 µM (inactive)	–	14 µM (inactive)	14.1 µM (inactive)	0.473 µM (active)	4.91 µM (inactive)	10.7 µM (inactive)	> 49.9 µM (inactive)	25.4 µM (inactive)	21.6 µM (inactive)	5.71 µM (inactive)	7.66 µM (inactive)	3.27	4.04 µM (inactive)	4.45 µM (inactive)	26.3 µM (inactive)	2.37 µM (inactive)	2.2 µM (inactive)	1.93 µM (inactive)
